Reference: ChEMBL document CHEMBL1201862, “PubChem BioAssay data set” (2004)
The source made the active and inactive calls.

Key:
[1] = target: Eukaryotic translation initiation factor 4E (Mus musculus, UniProt P63073); assay: eIF4E–eIF4G protein interaction inhibitors, dose response, biochemical, TR-FRET (AID 855); type: functional;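 further: potency for disrupting eIF4E binding to eIF4GI seen as loss of FRET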
[2] = target: T1, Neuropeptides B/W receptor type 1 (Homo sapiens, UniProt P48145); assay: Fluorescence-based dose response cell-based high throughput screening assay to identify antagonists of the G-protein coupled receptor 7 (GPR7). [Related pubchem assays: 1952 (Screening assay (GPR7 antagonists).), 1880 (Summary AID.)]; type: functional
T1 sequence (P48145 whole entry): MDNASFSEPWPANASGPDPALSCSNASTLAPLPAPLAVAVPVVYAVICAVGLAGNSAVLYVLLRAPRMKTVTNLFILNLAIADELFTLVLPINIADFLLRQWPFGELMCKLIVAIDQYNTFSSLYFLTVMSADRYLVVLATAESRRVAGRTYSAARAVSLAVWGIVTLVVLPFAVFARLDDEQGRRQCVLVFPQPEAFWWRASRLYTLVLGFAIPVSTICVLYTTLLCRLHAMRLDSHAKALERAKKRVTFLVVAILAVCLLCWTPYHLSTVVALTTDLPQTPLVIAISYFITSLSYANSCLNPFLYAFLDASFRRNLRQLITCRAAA

[3] = target: Melanin-concentrating hormone receptor 1 (Homo sapiens, UniProt Q99705); assay: Fluorescence-based counterscreen for antagonists of the G-protein coupled receptor 7 (GPR7): cell-based high throughput dose response assay to identify antagonists of the melanin-concentrating hormone receptor 1 (MCHR1).; type: functional
[4] = system: A-375; assay: MITF: Counter assay: A375 proliferation Measured in Cell-Based System Using Plate Reader - 2084-03_Inhibitor_Dose_DryPowder_Activity. [Related pubchem assays (depositor defined):AID488944]; type: functional; conditions: Homo sapiens
[5] = system: HEK293; assay: cells; type: functional, cell-based; conditions: Homo sapiens
[6] = system: HEK293; assay: NOD1 signaling inhibitors, primary screen, cell-based, luminescence, uHTS (AID 1578); type: functional; conditions: Homo sapiens
[7] = system: Vero; assay: cells; type: functional, cell-based; conditions: Chlorocebus sabaeus
[8] = system: HEK293; assay: cells; type: functional, cell-based; conditions: Homo sapiens; remark: listed apart in the source
[9] = system: HEK293; assay: cells; type: functional, cell-based; conditions: Homo sapiens; remark: listed apart in the source
[10] = system: Vero; assay: cells; type: functional; conditions: Chlorocebus sabaeus
[11] = target: T2, Microphthalmia-associated transcription factor (Homo sapiens, UniProt O75030); assay: TRPM1 promoter luciferase signal decrease, dose response, MITF inhibitor project, cell-based, SK-MEL-5, cherry-picked, set 3 (AID 493073); type: functional
T2 sequence (O75030 whole entry): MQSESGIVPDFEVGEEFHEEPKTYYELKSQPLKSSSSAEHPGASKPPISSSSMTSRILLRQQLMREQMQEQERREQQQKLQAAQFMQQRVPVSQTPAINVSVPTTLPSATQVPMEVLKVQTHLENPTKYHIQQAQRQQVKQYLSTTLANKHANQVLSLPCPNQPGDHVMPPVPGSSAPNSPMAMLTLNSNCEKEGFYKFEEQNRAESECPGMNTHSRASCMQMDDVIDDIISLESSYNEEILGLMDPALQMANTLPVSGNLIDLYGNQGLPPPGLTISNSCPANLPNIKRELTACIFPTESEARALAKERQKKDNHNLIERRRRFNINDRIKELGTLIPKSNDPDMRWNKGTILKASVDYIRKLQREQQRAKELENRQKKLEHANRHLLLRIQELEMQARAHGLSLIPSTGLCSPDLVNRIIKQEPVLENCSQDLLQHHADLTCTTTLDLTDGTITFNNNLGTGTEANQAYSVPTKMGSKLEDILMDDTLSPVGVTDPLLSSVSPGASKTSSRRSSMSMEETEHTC

[12] = target: Nucleotide-binding oligomerization domain-containing protein 2 (Homo sapiens, UniProt Q9HC29); assay: NOD2 signaling inhibitors, cell-based, luminescence, uHTS, HEK293 (AID 1566); type: functional
[13] = system: HEK293; assay: NOD2 signaling inhibitors in MDP-stimulated cells, cell-based, uHTS, luminescence (AID 2001); type: functional; conditions: Homo sapiens
[14] = target: T3, Voltage-gated N-type calcium channel alpha-1B subunit/Amyloid beta A4 precursor protein-binding family A member 1 (Homo sapiens, UniProt Q00975+Q02410); type: protein assay
[15] = target: T3, Voltage-gated N-type calcium channel alpha-1B subunit/Amyloid beta A4 precursor protein-binding family A member 1; type: protein assay; remark: listed apart in the source
[16] = target: T4, CAAX prenyl protease 2 (Saccharomyces cerevisiae S288c, UniProt Q03530); type: biochemical
T4 sequence (Q03530 whole entry): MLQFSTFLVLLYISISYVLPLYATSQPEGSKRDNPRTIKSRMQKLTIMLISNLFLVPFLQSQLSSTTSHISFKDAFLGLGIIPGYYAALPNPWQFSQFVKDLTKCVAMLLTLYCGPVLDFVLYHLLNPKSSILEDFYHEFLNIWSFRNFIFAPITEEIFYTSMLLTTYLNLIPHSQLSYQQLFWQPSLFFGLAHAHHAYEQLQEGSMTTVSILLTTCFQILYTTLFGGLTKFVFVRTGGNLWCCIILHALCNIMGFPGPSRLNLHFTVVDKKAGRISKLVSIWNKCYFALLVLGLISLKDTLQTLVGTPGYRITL

[17] = cytotoxicity in HEK-293T cells, dose response, cytotoxicity control for BCR NF-kB inhibitor project, luminescence, B-cell screen hits (AID 489021); type: functional, cell-based;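 further: HEK-293T cells carrying an NF-kB luciferase reporter; cells exposed to compound for about 14 hours before viability readout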
[18] = luciferase reporter signal reduction – luminescence, H4-C neuroglioblastoma cells, dose response (AID 2458); type: functional, cell-based;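 further: H4 neuroglioblastoma cells stably carrying a luciferase reporter gene fusion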
[19] = Luminescence Cell-Based Dose Response HTS to Identify Inhibitors of 5'UTR Stem-Loop Driven Prion Protein mRNA Translation in H4 Neuroglioblastoma Cells. [Related pubchem assays: 1827 (Project Summary), 1813 (Primary HTS)]; type: functional
[20] = system: A-375; assay: A375 melanoma cell viability reduction, dose response, counter-screen for MITF modulator project, cherry-pick samples, set 2 (AID 540335); type: functional, cell-based; conditions: Homo sapiens
[21] = inhibitors of firefly luciferase expression or activity, dose response, H4 neuroglioma cells, luminescence (AID 1990); type: functional, cell-based
[22] = inhibitors of SNCA 5'UTR-driven translation, confirmation, luminescence, H4 neuroglioblastoma cells, dose confirmation (AID 2454); type: functional, cell-based;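 further: H4 neuroglioblastoma cells carrying an alpha-synuclein 5'UTR luciferase reporter; potency for inhibition of the luciferase signal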
[23] = cells; type: functional, cell-based
[24] = inhibitors of SNCA 5'UTR-driven reporter translation, confirmation, H4 neuroglioma cells, luminescence (AID 1988); type: functional, cell-based
[25] = target: T5, Estrogen receptor beta (Homo sapiens, UniProt Q92731); assay: ERβ–SRC-3 coactivator interaction inhibitors, confirmation, orthogonal assay, biochemical, ELISA, streptavidin-HRP readout (AID 1060)
[26] = target: T5, Estrogen receptor beta
[27] = target: T6, Eukaryotic translation initiation factor 2-alpha kinase 3 (Homo sapiens, UniProt Q9NZJ5); assay: Counterscreen assay for PERK inhibitors: Dose response cell-based high throughput screening assay to measure inhibition of PERK at 6 hours. [Related pubchem assays: 1522, 1416 ]; type: functional
T6 sequence (Q9NZJ5 whole entry): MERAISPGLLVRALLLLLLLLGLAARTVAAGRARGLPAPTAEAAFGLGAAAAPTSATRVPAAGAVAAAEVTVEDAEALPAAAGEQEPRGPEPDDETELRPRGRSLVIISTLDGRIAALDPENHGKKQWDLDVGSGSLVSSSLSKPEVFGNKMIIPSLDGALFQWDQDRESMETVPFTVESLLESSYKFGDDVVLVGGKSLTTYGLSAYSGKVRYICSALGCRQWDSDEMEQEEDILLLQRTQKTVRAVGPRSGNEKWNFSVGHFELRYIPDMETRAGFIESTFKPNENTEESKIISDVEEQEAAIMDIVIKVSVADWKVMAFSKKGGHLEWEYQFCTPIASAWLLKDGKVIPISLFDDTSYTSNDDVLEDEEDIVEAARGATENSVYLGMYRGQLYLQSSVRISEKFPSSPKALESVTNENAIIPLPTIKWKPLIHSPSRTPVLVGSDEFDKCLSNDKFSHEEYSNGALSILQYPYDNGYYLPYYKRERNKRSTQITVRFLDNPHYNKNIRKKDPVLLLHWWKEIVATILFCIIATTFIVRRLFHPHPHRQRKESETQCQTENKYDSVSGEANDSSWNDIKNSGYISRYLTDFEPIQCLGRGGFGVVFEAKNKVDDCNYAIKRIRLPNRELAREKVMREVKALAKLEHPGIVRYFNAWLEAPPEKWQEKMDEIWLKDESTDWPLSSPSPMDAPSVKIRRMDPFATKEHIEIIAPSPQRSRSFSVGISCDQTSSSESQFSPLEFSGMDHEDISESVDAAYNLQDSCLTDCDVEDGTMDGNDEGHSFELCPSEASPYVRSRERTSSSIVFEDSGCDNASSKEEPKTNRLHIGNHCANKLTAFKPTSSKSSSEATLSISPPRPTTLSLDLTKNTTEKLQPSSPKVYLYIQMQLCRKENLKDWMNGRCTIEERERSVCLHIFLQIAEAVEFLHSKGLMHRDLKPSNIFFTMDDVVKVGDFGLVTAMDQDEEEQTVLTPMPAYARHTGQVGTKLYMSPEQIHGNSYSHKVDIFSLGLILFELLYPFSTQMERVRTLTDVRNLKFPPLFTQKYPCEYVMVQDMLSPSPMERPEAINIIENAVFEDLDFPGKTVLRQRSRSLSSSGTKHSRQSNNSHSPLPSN

[28] = target: T6, Eukaryotic translation initiation factor 2-alpha kinase 3; assay: Dose response cell-based high-throughput screening assay to measure PERK inhibition. [Related pubchem assays: 1416 ]; type: functional
[29] = growth suppression of beta-catenin-knockout colon cells, dose response, cell-based, HCT116, human colon tumor (AID 1045); type: functional;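 further: HCT116 colon tumor cells with beta catenin knocked out; cells exposed to compound for 60 hours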
[30] = cytotoxicity in HEK-293T cells, dose response, cytotoxicity control for TCR NF-kB inhibitor project, luminescence, T-cell screen hits (AID 489026); type: functional, cell-based;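 further: cells exposed to compound about 14 hours before the viability readout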
[31] = growth suppression of PTEN-null colon cells, dose response, cell-based, HCT116 PTEN knockout (AID 1047); type: functional;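 further: HCT116 colon tumor cells with PTEN knocked out; cells exposed to compound for 60 hours before readout; potency for loss of cell viability measured by luminescence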
[32] = target: Induced myeloid leukemia cell differentiation protein Mcl-1 (Homo sapiens, UniProt Q07820); assay: MCL1-BIM BH3 interaction inhibitors, dose response, biochemical, fluorescence polarization, BIM-BH3 peptide, 1536-well (AID 2217)
[33] = system: H9c2; assay: cells; type: functional, cell-based; conditions: Rattus norvegicus, H9c2, Myocardium;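 further: confirmatory concentration-response retest of ultra-high-throughput screening hits for modulation of myocardial damage; cell death induced by hydrogen peroxide oxidative stress; compound pretreatment for 60 min then peroxide exposure for 2 h; potency is for protecting the cells against peroxide damage rather than for killing them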
[34] = target: Bcl-2-like protein 1 (Homo sapiens, UniProt Q07817); assay: BCL-XL inhibitors, dose response, selectivity assay for MCL1 inhibitor project, biochemical, fluorescence polarization, 1536-well (AID 2218)
Bcl-2-like protein 1, sequence (Q07817 whole entry): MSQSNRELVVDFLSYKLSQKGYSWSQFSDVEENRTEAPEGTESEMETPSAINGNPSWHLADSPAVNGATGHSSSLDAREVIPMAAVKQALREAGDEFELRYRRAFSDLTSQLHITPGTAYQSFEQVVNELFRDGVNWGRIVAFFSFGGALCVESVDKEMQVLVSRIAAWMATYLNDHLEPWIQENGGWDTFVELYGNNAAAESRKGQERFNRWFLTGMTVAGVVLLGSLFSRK

T3 sequence (Q00975 whole entry): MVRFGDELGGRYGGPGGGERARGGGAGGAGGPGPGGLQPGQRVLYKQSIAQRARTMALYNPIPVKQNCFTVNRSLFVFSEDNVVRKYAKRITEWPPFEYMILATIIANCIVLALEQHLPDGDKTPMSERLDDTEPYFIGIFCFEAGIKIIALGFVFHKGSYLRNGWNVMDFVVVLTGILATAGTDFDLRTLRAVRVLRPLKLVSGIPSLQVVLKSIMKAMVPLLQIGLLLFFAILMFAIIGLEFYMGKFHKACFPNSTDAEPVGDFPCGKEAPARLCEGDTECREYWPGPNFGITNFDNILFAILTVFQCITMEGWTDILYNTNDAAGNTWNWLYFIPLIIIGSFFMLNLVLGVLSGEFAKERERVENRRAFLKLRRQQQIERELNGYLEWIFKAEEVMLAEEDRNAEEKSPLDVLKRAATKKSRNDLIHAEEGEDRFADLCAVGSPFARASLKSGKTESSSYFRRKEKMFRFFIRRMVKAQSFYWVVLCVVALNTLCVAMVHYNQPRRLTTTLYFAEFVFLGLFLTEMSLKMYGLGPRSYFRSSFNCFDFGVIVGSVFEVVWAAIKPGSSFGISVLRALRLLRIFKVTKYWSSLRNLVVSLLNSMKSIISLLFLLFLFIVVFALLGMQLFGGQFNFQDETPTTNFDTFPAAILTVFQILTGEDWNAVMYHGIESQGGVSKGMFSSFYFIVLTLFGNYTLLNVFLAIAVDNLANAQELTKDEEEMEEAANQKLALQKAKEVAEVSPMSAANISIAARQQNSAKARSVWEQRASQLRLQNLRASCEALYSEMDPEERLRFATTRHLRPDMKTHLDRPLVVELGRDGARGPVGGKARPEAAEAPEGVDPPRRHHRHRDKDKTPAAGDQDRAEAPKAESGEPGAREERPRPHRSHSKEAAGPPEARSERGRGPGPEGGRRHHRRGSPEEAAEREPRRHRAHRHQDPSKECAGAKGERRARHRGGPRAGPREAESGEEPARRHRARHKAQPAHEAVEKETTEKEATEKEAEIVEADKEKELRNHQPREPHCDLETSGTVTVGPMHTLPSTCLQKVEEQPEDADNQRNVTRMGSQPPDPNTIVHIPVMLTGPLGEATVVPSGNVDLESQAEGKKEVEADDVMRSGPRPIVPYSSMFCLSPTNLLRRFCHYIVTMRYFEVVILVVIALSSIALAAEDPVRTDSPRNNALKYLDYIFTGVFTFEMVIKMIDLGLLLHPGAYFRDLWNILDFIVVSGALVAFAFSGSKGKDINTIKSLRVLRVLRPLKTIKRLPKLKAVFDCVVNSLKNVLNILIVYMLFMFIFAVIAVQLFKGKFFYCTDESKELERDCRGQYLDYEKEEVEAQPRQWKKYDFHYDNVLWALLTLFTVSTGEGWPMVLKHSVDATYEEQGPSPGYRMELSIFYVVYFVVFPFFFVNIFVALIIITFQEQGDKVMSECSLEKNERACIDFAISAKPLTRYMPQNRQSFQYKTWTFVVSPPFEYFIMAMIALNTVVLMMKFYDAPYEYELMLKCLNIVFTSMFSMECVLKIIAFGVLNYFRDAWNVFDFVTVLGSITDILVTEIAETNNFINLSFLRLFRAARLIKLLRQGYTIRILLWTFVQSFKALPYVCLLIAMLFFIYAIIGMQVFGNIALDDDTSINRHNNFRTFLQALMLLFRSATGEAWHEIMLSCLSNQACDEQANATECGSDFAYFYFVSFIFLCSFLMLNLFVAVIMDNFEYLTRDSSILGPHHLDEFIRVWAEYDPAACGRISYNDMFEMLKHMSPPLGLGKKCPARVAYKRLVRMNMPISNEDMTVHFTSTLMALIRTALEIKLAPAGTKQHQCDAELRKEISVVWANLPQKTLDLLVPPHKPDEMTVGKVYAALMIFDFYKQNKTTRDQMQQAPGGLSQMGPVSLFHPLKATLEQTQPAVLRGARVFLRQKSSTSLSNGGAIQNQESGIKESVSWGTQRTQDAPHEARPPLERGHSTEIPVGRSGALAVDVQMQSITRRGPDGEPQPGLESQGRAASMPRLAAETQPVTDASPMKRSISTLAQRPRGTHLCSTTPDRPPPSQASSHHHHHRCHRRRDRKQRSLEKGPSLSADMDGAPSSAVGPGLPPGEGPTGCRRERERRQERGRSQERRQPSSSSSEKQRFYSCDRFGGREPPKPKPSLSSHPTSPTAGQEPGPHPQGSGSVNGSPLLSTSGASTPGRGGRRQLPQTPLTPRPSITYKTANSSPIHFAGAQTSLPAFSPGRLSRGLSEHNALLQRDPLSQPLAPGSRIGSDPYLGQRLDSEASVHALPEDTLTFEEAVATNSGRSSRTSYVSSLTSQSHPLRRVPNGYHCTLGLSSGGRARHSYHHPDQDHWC
T3 sequence (Q02410 whole entry): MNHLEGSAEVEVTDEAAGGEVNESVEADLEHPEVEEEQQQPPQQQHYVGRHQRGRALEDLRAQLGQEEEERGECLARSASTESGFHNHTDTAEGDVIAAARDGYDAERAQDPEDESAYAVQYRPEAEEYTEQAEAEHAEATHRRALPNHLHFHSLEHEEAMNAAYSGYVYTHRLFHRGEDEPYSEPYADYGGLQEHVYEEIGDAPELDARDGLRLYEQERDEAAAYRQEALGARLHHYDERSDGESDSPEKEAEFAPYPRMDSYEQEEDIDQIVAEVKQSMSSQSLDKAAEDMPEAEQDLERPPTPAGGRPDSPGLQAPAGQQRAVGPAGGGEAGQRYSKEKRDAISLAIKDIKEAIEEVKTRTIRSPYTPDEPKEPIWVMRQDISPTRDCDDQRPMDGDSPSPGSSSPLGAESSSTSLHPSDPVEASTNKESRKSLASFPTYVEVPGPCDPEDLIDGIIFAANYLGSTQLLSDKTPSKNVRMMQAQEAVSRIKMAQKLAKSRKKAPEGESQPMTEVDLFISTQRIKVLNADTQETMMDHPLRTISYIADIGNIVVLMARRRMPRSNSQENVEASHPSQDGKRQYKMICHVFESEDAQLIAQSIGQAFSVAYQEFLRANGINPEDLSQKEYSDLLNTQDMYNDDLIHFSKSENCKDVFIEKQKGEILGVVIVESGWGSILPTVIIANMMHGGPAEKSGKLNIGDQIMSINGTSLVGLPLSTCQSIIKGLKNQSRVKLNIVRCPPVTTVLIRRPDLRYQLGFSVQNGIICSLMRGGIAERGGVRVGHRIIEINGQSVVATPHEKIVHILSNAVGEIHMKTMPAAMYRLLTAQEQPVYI
T5 sequence (Q92731 whole entry): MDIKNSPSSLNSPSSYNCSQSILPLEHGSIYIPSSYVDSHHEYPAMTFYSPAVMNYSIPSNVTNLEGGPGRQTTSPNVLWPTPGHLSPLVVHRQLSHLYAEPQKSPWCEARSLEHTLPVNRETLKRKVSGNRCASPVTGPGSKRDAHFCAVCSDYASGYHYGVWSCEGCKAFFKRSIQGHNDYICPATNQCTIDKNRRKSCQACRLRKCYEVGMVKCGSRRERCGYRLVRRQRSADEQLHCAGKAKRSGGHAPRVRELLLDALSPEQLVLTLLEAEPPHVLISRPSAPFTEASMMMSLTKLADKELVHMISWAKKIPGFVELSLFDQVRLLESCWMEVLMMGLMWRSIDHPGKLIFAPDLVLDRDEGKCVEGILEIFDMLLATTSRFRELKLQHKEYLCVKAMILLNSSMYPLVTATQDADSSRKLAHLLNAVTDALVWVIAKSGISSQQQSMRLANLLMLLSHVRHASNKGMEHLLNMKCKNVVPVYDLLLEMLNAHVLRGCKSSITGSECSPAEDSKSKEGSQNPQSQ
Eukaryotic translation initiation factor 4E, sequence (P63073 whole entry): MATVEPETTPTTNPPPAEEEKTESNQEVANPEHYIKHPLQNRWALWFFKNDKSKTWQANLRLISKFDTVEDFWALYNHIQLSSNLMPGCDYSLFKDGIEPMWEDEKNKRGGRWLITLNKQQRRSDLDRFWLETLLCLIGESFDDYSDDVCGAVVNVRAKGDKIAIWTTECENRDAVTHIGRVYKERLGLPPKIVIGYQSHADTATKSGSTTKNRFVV
Melanin-concentrating hormone receptor 1, sequence (Q99705 whole entry): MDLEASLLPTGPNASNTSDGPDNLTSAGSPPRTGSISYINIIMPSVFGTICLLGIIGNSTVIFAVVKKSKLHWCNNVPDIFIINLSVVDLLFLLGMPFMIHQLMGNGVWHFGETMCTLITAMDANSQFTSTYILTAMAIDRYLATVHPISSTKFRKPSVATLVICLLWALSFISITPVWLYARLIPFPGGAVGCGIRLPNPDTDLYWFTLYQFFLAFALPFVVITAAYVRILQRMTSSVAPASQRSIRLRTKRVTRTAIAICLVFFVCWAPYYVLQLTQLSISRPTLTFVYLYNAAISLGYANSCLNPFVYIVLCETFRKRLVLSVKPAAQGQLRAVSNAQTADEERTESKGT
Induced myeloid leukemia cell differentiation protein Mcl-1, sequence (Q07820 whole entry): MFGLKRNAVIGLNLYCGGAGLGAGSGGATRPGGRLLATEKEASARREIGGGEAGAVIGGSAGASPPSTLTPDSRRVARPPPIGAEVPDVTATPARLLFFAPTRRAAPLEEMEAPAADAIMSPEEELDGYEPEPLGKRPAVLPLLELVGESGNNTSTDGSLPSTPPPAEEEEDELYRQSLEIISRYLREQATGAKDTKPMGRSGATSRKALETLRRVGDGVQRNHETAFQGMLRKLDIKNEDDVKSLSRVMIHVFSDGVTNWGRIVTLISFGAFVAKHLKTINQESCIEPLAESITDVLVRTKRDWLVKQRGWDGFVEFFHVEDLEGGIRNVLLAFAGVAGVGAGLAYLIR

## CC1CCCCN1C(=O)Cn1c(=O)n(-c2ccc(F)cc2)c(=O)c2sccc21 (configuration not stated)
[1]
  IC50: 50 µM (inactive)

## Cc1ccc(-n2c(SCC(N)=O)nnc2-c2ccc(S(=O)(=O)N3CCCCC3)cc2)c(C)c1
[2]
  IC50: 5.29 µM (active)
[3]
  IC50: 29.6 µM (not active)

## CC1CCCCC1NC(=O)/C(C#N)=C/C=C/c1ccccc1[N+](=O)[O-] (configuration not stated)
[4]
  AC50: 31.9 µM (active)
[5]
  IC50: 3.59 µM (active)
[6]
  EC50: > 20 µM (inactive)
[7]
  IC50: 13.3 µM (active)
[8]
  IC50: > 20 µM (inactive)
[9]
  IC50: > 20 µM (inactive)
[10]
  CC50: 15.6 µM (active)
[11]
  AC50: 7.92 µM (active)
[12]
  EC50: > 20 µM (inactive)
[13]
  IC50: 4.85 µM (inactive)

## CN1C(=O)C(Cl)(Cl)C(=O)c2ccccc21
[14]
  IC50: 2.75 µM (active)
[15]
  IC50: 34.5 µM (active)

## CC(C)c1ccc(/C=C2\SC(=S)N(CCC(=O)NCCCn3ccnc3)C2=O)cc1
[16]
  AC50: > 100 µM (inactive)
[17]
  IC50: > 80 µM (inactive)

## O=C(NC1CCCCC1)C1CCN(c2cnccn2)CC1
[1]
  IC50: > 64 µM (inactive)

## CC(C)(C)c1ccc(-c2cc(N)[nH]n2)cc1
[18]
  EC50: 0.403 µM (active)
[4]
  AC50: > 35 µM (active)
[19]
  EC50: 7.28 µM (active)
[20]
  AC50: > 35 µM (active)
[21]
  EC50: < 0.1 µM (active)
[17]
  IC50: > 80 µM (inactive)
[11]
  AC50: 0.511 µM (active)
[22]
  EC50: 0.677 µM (active)
[23]
  EC50: 1.34 µM (active)
[24]
  EC50: < 0.1 µM (active)

## Oc1ccccc1-c1nnc(SCCN2CCOCC2)n1Cc1ccccc1
[25]
  IC50: < 0.023 µM (not active)
[19]
  EC50: 8.21 µM (active)
[21]
  EC50: 9.74 µM (active)
[26]
  IC50: 3.51 µM (active)
[24]
  EC50: 7.29 µM (active)

## COC(=O)C(NC(C)=O)(Nc1ccc(C)cn1)C(F)(F)F (configuration not stated)
[27]
  EC50: > 55.7 µM (not active)
[28]
  EC50: > 55.7 µM (not active)

## COc1ccc2c3c([nH]c2c1)C1CC2C(CC(O)C(OC)C2CO)CN1CC3 (configuration not stated)
[27]
  EC50: > 55.7 µM (not active)
[28]
  EC50: > 55.7 µM (not active)

## CCn1c2ccccc2c2cc(Nc3cc(C)nc4ncnn34)ccc21
[18]
  EC50: 0.265 µM (active)
[29]
  EC50: < 0.059 µM (active)
[21]
  EC50: < 0.1 µM (active)
[30]
  IC50: 43.4 µM (inactive)
[31]
  EC50: < 0.059 µM (active)
[22]
  EC50: 0.354 µM (active)
[23]
  EC50: 0.255 µM (active)
[24]
  EC50: < 0.1 µM (active)

## COc1ccc(S(=O)(=O)N2CCN(CC(=O)Nc3cccc(OC)c3)CC2)cc1
[2]
  IC50: > 43.8 µM (not active)
[3]
  IC50: > 43.8 µM (not active)

## Cc1cc(C)c2c(=O)n(CC(=O)N3CCC(Cc4ccccc4)CC3)sc2n1
[14]
  IC50: > 50 µM (inactive)
[15]
  IC50: 15.5 µM (active)

## CNc1ccccc(C(=O)/C=C/c2ccccc2OC)c1=O
[32]
  IC50: > 109 µM (not active)
[33]
  IC50: 11.5 µM (active)
[34]
  IC50: > 109 µM (not active)
